Among the data in patent US7262210B2, “Fluorinated pyridine N-oxide thrombin modulators and process for N-oxidation of nitrogen containing heteroaryls” (Janssen Pharmaceutica N.V., priority 2005, dated 2007) are Ki values, retold here.

The term Ki denotes a dissociation constant, usually derived from enzyme kinetics or from competition with a known ligand.

Structures are written as SMILES. Structures can show the parent of a compound that is named as a salt.

The assay addresses T1, Human α-thrombin (Homo sapiens, UniProt P00734).
T1 construct: Human α-thrombin (Enzyme Research Laboratories HT1002a); purchased Enzyme Research Laboratories (South Bend, Ind.) HT1002a
Briefly: In vitro inhibition of purified enzyme; kinetic analysis by chromogenic substrates. The class given is biochemical. The settings on record: substrate SucAAPR pNA 100 uM, Km=320 μM, Ki factor=0.76; 37° C., pH 7.5, 4% DMSO; thrombin 1.1 nM; Ki=IC50×Ki factor. The method, then: In Vitro Inhibition of Purified Enzyme
Reagents: All buffer salts were obtained from Sigma Chemical Company (St. Louis, Mo.), and were of the highest purity available.
Human α-thrombin, was obtained from Enzyme Research Laboratories (South Bend, Ind.).
Kinetic Analysis by Chromogenic Substrates
Compounds were assessed for their inhibitory activity toward Thrombin by kinetic analysis using para-nitroaniline chromogenic substrates monitored at 405 nm. The assay buffer employed was 50 mM HEPES, pH 7.5, 200 mM NaCl, and fresh 0.05% n-octyl β-d-glucopyranoside. DMSO was present at a final concentration of 4%, derived from the substrate and inhibitory compound stock solutions. […] Reactions were initiated by addition of 10 μL protease, and increase in absorbance due to proteolytic cleavage of substrate was kinetically monitored at 37° C., 405 nm with a Molecular Devices Spectramax 340 platereader. Initial velocities were determined by analysis of the initial linear portion of the reactions. Plots of vo/vi vs. inhibitor concentration, where vo=velocity without inhibitor, and vi=inhibited velocity, were fit to a linear regression line, and the IC50 was determined from the reciprocal of the slope. […]

`N#Cc1cc(F)c(NCC(F)(F)c2ccccn2)[n+]([O-])c1CC(=O)NCc1ncccc1F` [Example 1, 2-[3-Cyano-6-(2,2-difluoro-2-pyridin-2-yl-ethylamino)-5-fluoro-1-oxy-pyridin-2-yl]-N-(3-fluoro-pyridin-2-ylmethyl)-acetamide dihydrochloride] came in with a Ki of 9.8 to 11 nM.
